The source of these data is patent US7790895B2, “Quinoline derivatives as potassium ion channel openers” (Janssen Pharmaceutica NV, priority 2005, dated 2010).

As usually defined, the EC50 is the concentration that produces a half-maximal response. Read a low EC50 as a more potent agent.

The assay deals with T1, KATP channels (Homo sapiens, UniProt O60706).
T1 construct: TE671 human medulloblastoma cells were obtained from ATCC; host or cells: TE671 human medulloblastoma cells
In words: Potassium Channel Assay (FLIPR membrane potential, KATP channel opening). The following applies: TE671 human medulloblastoma cells, Membrane Potential Assay Dye, room temperature; for % Stimulation: test concentration not given. In kind it is cell-based. The procedure:
TE671 human medulloblastoma cells were obtained from ATCC and grown in Dulbecco's modified Eagle's medium (DMEM) supplemented with 10% fetal bovine serum, 100 U/ml penicillin and 100 U/ml streptomycine.
The day before testing, the cells were plated in black 96-well plates at 50K/well. On the day of testing, the growth media was removed, then 100 μl of FLIPR buffer (20 mM HEPES, 120 mM NaCl, 2 mM KCl, 2 mM CaCl2, 1 mM MgCl2, 5 mM Glucose) and 100 μl of Membrane Potential Assay Dye (Molecular Devices) dissolved in FLIPR buffer were added to each well. The cells were incubated at room temperature for 15 to 30 min.
The effect of test compounds on KATP channels were evaluated on a fluorometric imaging plate reader (FLIPR, Molecular Devices) at room temperature. After a baseline period, 50 μl of 5× stock solution of test compound prepared in FLIPR buffer was added and fluorescence change was monitored for 3 minutes. After this reading, glyburide, a KATP channel blocker, was added to a final concentration of 5 μM to check the specificity of the test compound as a KATP channel opener. Hyperpolarization resulting from KATP channel opening was observed as a decrease in fluorescence intensity.

SMILES strings stand for the structures.

T1 sequence (O60706 1-1549 isoform O60706-2): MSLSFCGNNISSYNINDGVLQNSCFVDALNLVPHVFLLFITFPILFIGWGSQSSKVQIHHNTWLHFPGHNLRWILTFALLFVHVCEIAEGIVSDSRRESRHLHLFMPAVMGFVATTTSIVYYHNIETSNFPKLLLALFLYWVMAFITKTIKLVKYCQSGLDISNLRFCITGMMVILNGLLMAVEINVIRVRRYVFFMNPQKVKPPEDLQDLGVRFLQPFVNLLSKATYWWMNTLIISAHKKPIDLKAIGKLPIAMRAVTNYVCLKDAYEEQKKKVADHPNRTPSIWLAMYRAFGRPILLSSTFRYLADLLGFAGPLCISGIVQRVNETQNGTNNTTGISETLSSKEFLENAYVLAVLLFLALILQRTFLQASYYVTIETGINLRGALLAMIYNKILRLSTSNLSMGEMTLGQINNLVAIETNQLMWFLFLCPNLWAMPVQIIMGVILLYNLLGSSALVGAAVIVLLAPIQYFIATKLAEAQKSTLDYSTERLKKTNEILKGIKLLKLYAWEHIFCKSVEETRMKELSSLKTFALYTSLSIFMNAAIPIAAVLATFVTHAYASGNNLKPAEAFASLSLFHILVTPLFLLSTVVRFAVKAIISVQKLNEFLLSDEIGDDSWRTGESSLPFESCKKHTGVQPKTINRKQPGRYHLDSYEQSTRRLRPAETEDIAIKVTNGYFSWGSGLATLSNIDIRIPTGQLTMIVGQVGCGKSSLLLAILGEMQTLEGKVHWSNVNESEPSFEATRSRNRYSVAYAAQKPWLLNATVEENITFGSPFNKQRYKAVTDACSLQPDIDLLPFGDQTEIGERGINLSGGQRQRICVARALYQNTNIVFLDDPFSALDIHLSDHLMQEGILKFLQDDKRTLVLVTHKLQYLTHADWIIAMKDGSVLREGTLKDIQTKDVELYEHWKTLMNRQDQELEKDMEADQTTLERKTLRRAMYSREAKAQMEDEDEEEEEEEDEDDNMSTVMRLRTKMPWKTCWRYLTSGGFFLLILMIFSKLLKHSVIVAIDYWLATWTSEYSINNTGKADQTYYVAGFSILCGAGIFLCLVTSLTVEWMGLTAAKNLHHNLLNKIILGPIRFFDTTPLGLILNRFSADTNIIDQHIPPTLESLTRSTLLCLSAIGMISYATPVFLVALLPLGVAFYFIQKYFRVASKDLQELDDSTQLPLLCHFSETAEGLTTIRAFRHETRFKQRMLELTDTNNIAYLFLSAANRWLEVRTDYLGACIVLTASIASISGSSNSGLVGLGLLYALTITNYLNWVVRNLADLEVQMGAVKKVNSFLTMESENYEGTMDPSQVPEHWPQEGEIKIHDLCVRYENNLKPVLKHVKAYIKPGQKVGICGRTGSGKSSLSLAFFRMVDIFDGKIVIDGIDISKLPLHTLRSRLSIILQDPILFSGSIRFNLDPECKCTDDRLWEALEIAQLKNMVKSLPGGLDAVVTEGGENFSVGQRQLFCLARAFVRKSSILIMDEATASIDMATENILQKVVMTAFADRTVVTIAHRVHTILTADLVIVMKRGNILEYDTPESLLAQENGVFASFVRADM
T1 sequence (Q14654 whole entry partner): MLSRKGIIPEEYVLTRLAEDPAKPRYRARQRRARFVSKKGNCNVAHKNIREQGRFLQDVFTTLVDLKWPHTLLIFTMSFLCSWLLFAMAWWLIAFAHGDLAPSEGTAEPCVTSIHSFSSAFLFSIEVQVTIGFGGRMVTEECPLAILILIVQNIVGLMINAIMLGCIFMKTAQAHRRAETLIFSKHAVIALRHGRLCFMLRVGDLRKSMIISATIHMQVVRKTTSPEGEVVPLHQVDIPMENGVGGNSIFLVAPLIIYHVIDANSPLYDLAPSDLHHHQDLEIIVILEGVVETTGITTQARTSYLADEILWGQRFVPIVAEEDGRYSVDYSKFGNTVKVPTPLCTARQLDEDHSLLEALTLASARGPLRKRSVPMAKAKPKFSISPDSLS

Molecule `CCOC(=O)c1cnc2cc(C(F)(F)F)ccc2c1-c1cccc(C#N)c1` [Compound 1, 4-(3-Cyano-phenyl)-7-trifluoromethyl-quinoline-3-carboxylic acid ethyl ester] displayed an EC50 of more than 30 µM.
In the case of `CCOC(=O)c1cnc2cc(C(F)(F)F)ccc2c1-c1cc(C)cc(OC)c1` [Compound 2, 4-(3-Methoxy-5-methyl-phenyl)-7-trifluoromethyl-quinoline-3-carboxylic acid ethyl ester], the EC50 was more than 30 µM.
`CCOC(=O)c1cnc2cc(C(F)(F)F)ccc2c1-c1cc(C(F)(F)F)cc(C(F)(F)F)c1` [Compound 3, 4-(3,5-Bis-trifluoromethyl-phenyl)-7-trifluoromethyl-quinoline-3-carboxylic acid-ethyl ester] registered an EC50 of more than 30 µM.
Turning to `CCOC(=O)c1ccc(-c2c(C(=O)OCC)cnc3cc(C(F)(F)F)ccc23)cc1` [Compound 4, 4-(4-Ethoxycarbonyl-phenyl)-7-trifluoromethyl-quinoline-3-carboxylic acid ethyl ester], the EC50 is more than 30 µM.
Turning to `CCOC(=O)c1cnc2cc(C(F)(F)F)ccc2c1-c1ccc(-c2ccccc2)cc1` [Compound 5, 4-Biphenyl-4-yl-7-trifluoromethyl-quinoline-3-carboxylic acid ethyl ester], the EC50 was more than 30 µM.
On the same count and under the same terms, as for `CCOC(=O)c1cnc2cc(C(F)(F)F)ccc2c1-c1ccccc1` [Compound 6, 4-Phenyl-7-trifluoromethyl-quinoline-3-carboxylic acid ethyl ester], the figure is more than 30 µM.
As for `CCOC(=O)c1cnc2cc(C(F)(F)F)ccc2c1-c1cccc(C(C)=O)c1` [Compound 7, 4-(3-Acetyl-phenyl)-7-trifluoromethyl-quinoline-3-carboxylic acid ethyl ester], the EC50 was more than 30 µM and the “% Stimulation” value is 2%.
Consider `CCOC(=O)c1cnc2cc(C(F)(F)F)ccc2c1-c1cc(C(F)(F)F)ccc1F` [Compound 8, 4-(2-Fluoro-5-trifluoromethyl-phenyl)-7-trifluoromethyl-quinoline-3-carboxylic acid ethyl ester], for which the EC50 is more than 30 µM.
`CCOC(=O)c1cnc2cc(C(F)(F)F)ccc2c1-c1cc(C=O)ccc1OC` [Compound 9, 4-(5-Formyl-2-methoxy-phenyl)-7-trifluoromethyl-quinoline-3-carboxylic acid ethyl ester]: the EC50 amounted to 7.73 µM.
Molecule `CCOC(=O)c1cnc2cc(C(F)(F)F)ccc2c1-c1cccc(C(F)(F)F)c1` [Compound 10, 7-Trifluoromethyl-4-(3-trifluoromethyl-phenyl)-quinoline-3-carboxylic acid ethyl ester] registered an EC50 of more than 30 µM.
As for `CCOC(=O)c1cnc2cc(C(F)(F)F)ccc2c1-c1cccc(C=O)c1` [Compound 11, 4-(3-Formyl-phenyl)-7-trifluoromethyl-quinoline-3-carboxylic acid ethyl ester], the EC50 was more than 30 µM and the “% Stimulation” value was 2%.
Consider `CCOC(=O)c1cnc2cc(C(F)(F)F)ccc2c1-c1cccc(CO)c1` [Compound 12, 4-(3-Hydroxymethyl-phenyl)-7-trifluoromethyl-quinoline-3-carboxylic acid ethyl ester], for which the EC50 is more than 30 µM and the “% Stimulation” value came out at 20%.
For `CCOC(=O)c1cnc2cc(C(F)(F)F)ccc2c1-c1ccc(C)c(C)c1` [Compound 13, 4-(3,4-Dimethyl-phenyl)-7-trifluoromethyl-quinoline-3-carboxylic acid ethyl ester], the EC50 is more than 30 µM and the “% Stimulation” value is listed as 0%.
For the molecule `CCOC(=O)c1cnc2cc(C(F)(F)F)ccc2c1-c1cc(CO)ccc1OC` [Compound 14, 4-(5-Hydroxymethyl-2-methoxy-phenyl)-7-trifluoromethyl-quinoline-3-carboxylic acid ethyl ester], it took 4.56 µM to reach a half-maximal effect (EC50).
On to `CCOC(=O)c1cnc2cc(C(F)(F)F)ccc2c1OS(=O)(=O)C(F)(F)F` [Compound 15, 4-Trifluoromethanesulfonyloxy-7-trifluoromethyl-quinoline-3-carboxylic acid ethyl ester], for which the midpoint of the response, the EC50, lay at 6.27 µM. This EC50 and that of the molecule before are within 1.5-fold of each other.
Still for that read-out and setting: as for `N#Cc1cccc(-c2ccncc2C(O)c2ccccc2)c1` (centres unmarked) [Compound 19, 3-[3-(Hydroxy-phenyl-methyl)-pyridin-4-yl]-benzonitrile], the figure is 9.63 µM; as for `N#Cc1cccc(-c2ccncc2C(O)c2ccc(F)cc2)c1` (centres unmarked) [Compound 20, 3-{3-[(4-Fluoro-phenyl)-hydroxy-methyl]-pyridin-4-yl}-benzonitrile], 19.4 µM.
Take `N#Cc1cccc(-c2ccncc2C(O)c2cccc(F)c2)c1` (centres unmarked) [Compound 21, 3-{3-[(3-Fluoro-phenyl)-hydroxy-methyl]-pyridin-4-yl}-benzonitrile]: the EC50 amounted to 23.2 µM. The EC50 values of the last two molecules are within 1.5-fold of each other.
Same read-out and setting: with `Cc1ccc(C(O)c2cnccc2-c2cccc(C#N)c2)cc1F` (centres unmarked) [Compound 22, 3-{3-[(3-Fluoro-4-methyl-phenyl)-hydroxy-methyl]-pyridin-4-yl}-benzonitrile] the figure was 15.1 µM; with `N#Cc1cccc(-c2ccncc2C(O)c2ccc(F)c(F)c2)c1` (centres unmarked) [Compound 23, 3-{3-[(3,4-Difluoro-phenyl)-hydroxy-methyl]-pyridin-4-yl}-benzonitrile], 11.4 µM.
On to `N#Cc1cccc(-c2ccncc2C(O)c2ccc(Cl)c(Cl)c2)c1` (centres unmarked) [Compound 24, 3-{3-[(3,4-Dichloro-phenyl)-hydroxy-methyl]-pyridin-4-yl}-benzonitrile], for which the midpoint of the response, the EC50, lay at 14.5 µM.
`N#Cc1cccc(-c2ccncc2C(O)c2cc(Cl)cc(Cl)c2)c1` (centres unmarked) [Compound 25, 3-{3-[(3,5-Dichloro-phenyl)-hydroxy-methyl]-pyridin-4-yl}-benzonitrile] returned an EC50 of 9.82 µM.
The molecule `N#Cc1cccc(-c2ccncc2C(O)c2ccc(Cl)cc2)c1` (centres unmarked) [Compound 26, 3-{3-[(4-Chloro-phenyl)-hydroxy-methyl]-pyridin-4-yl}-benzonitrile] displayed an EC50 of 10.2 µM.
Same read-out and setting: with `CC(C)(C)c1ccc(C(O)c2cnccc2-c2cccc(C#N)c2)cc1` (centres unmarked) [Compound 27, 3-{3-[(4-tert-Butyl-phenyl)-hydroxy-methyl]-pyridin-4-yl}-benzonitrile] the figure was 10.7 µM.
The same measure, in the same setting: with `COc1ccccc1C(O)c1cnccc1-c1cccc(C#N)c1` (centres unmarked) [Compound 28, 3-{3-[Hydroxy-(2-methoxy-phenyl)-methyl]-pyridin-4-yl}-benzonitrile] the figure was 10.2 µM; with `COc1cccc(C(O)c2cnccc2-c2cccc(C#N)c2)c1` (centres unmarked) [Compound 29, 3-{3-[Hydroxy-(3-methoxy-phenyl)-methyl]-pyridin-4-yl}-benzonitrile], 13.7 µM.
For the molecule `COc1ccc(C(O)c2cnccc2-c2cccc(C#N)c2)cc1` (centres unmarked) [Compound 30, 3-{3-[Hydroxy-(4-methoxy-phenyl)-methyl]-pyridin-4-yl}-benzonitrile], the concentration for a half-maximal effect (EC50) is more than 30 µM and the “% Stimulation” value is 7%.
Regarding `Cc1ccccc1C(O)c1cnccc1-c1cccc(C#N)c1` (centres unmarked) [Compound 31, 3-{3-[Hydroxy-(2-methyl-phenyl)-methyl]-pyridin-4-yl}-benzonitrile], the EC50 amounted to 15 µM.
For the molecule `Cc1ccc(C(O)c2cnccc2-c2cccc(C#N)c2)cc1` (centres unmarked) [Compound 32, 3-{3-[Hydroxy-(4-methyl-phenyl)-methyl]-pyridin-4-yl}-benzonitrile], the midpoint of the response, the EC50, lay at 8.48 µM.
Still for that read-out and setting: as for `CSc1ccc(C(O)c2cnccc2-c2cccc(C#N)c2)cc1` (centres unmarked) [Compound 34, 3-{3-[Hydroxy-(4-methylsulfanyl-phenyl)-methyl]-pyridin-4-yl}-benzonitrile], the figure is 20.8 µM.
